Results taken from patent publication US9925280B2, “Hyperpolarized amino acids” (BRACCO IMAGING S.P.A., priority 2012, dated 2018).

Assay: Solubility in anhydrous solvents
Assay type: physicochemical
Procedure: The above components of the DNP mixture can be admixed according to any suitable technique and methodology known in the art. In a preferred embodiment, the amino acid and the hydroxide are first admixed as dry powders. The powder mixture is then dissolved in the anhydrous solvent, which preferably already contains the polarizing agent dissolved therein. […] Optionally, the DNP mixture may further contain a paramagnetic metal ion, for further increasing the polarisation levels in the compound to be polarised (see e.g. WO 2007/064226 herein incorporated by reference); preferably, the paramagnetic metal ion is in the form of a complex with a chelating agent, such as, for instance DOTA, DO3A, BOPTA or DTPA; preferably the paramagnetic metal ion is a Gadolinium (Gd^3+).

## NC(=O)CC[C@H](N)C(=O)O [glutamine]
  solubility in anhydrous solvents: very poor solubility
